Usually melting point stands for the temperature, or range, at which the solid turns liquid.

The text below walks through data of a melting point compilation (Tetko et al.; mined from patent text by program, amines drawn as free bases though some values may be those of a salt).

`COCCSc1cc(N)ncn1` registered a melting point of 78 to 80 °C.

For `CCC(C)CC(C)NC1=NS(=O)(=O)c2cc(Cl)ccc2N1` (stereo unspecified), the melting point is > 220 °C.

In the case of `COc1ccc2[nH]c3c(c2c1)C1C(=O)NC(=O)C1C(C(=O)OCc1ccccc1)C3` (stereo unspecified), the melting point was in the range of 179 to 181 °C.

In turn, `CCCSc1ncc(C(=O)O)n1Cc1ccccc1Cl` registered a melting point of 158 to 160 °C.

Molecule `O=C(Cn1cccn1)c1ccc(F)cc1F` yielded a melting point of 76.4 °C.

`Cc1cc(Oc2ccccc2)c(S(C)(=O)=O)cc1C(=O)N=C(N)N`: the melting point lay within 248 to 250 °C.

Take `OCCN1c2ccccc2Oc2ccccc21`: the melting point lay within 113 to 115 °C.

`C=C1C(C(=O)c2ccccc2)CC(O[Si](c2ccccc2)(c2ccccc2)C(C)(C)C)C1COC(c1ccccc1)(c1ccccc1)c1ccccc1` (stereo unspecified) registered a melting point of 142 to 144 °C.

Take `CCCCCCCCCCCCCCCOC(=O)c1cccnc1`: the melting point was found to be 35 °C.

As to `O=C(O)/C(=C\c1ccccc1)CC(=O)N1C[C@H]2CCCC[C@H]2C1`, the melting point is 126 to 128 °C.

`c1ccc(C(OC2CCN(CCCCCNc3ccc4ncnn4n3)CC2)c2ccccc2)cc1` had a melting point of 96 to 98 °C.

Turning to `O=c1c2c(Cl)cccc2nc2sc(Br)cn12`, the melting point fell in the range of 174 to 178 °C.

With `CC(C)C(CO)(CO)[N+](=O)[O-]`, the melting point lay in the range of 67 to 72 °C.

Consider `Fc1ccc(-c2cnn(CCC#Cc3ccccn3)n2)cc1`, for which the melting point is 83.5 to 84.5 °C.

The molecule `BrCc1c(Br)cccc1Br` registered a melting point of 77 to 78 °C.

`Cc1nc(-c2ccc(Cl)cc2)c(CC(=O)O)o1` returned a melting point of 215 to 216 °C.

Turning to `CCCn1c(=O)n(-c2ccc3c(c2)OCO3)c2ncc(F)cc21`, the melting point fell in the range of 153 to 154 °C.

As for `COCCN1C(=O)C(C)(C)C(=O)Nc2cc(CN(CCn3cc(C)c4occc4c3=O)Cc3cccnc3C)ccc21`, the melting point lay within 205 to 206 °C.

Regarding `O=c1oc2c([N+](=O)[O-])c(O)c(O)cc2cc1-c1ccccc1`, the melting point is 195 to 210 °C.

With `CCOC(=O)c1cccc2c(=O)cc(-c3ccc(OCc4ncc5ccccc5n4)cc3)oc12`, the melting point fell in the range of 265 to 266 °C.

As to `O=C(O)c1cccc(CCl)c1`, the melting point fell in the range of 134 to 136 °C.

Consider `CC(C)c1ccccc1Sc1c(O)cc(-c2cc(Cl)cc(Cl)c2)oc1=O`, for which the melting point was 168 to 169 °C.

`COc1cc(Oc2ccc(S(C)(=O)=O)nc2)cc2cc(C3=NCC(CC(=O)N(C)C)S3)[nH]c12` (stereo unspecified) came in with a melting point of 206 to 207 °C.

With `COc1ccnc(CCc2nc3cc(-c4ccc(S(=O)(=O)N5CCN(C(C)=O)CC5)cc4)cnc3[nH]2)c1`, the melting point lay in the range of 138 to 140 °C.

In turn, `O=C1CCN(Cc2cnc(Nc3n[nH]c4ccc(-c5ncccc5Cl)cc34)s2)CC1` registered a melting point of 187 to 188 °C.

As for `CC(=O)c1cccc(Oc2ncccc2C(=O)NCc2ccc(C(C)(C)O)cc2F)c1`, the melting point fell in the range of 68 to 70 °C.

`CC(C)c1nsc2c1C(=O)N(C(C)(C)C)C2=O` yielded a melting point of 52 to 53 °C.

The molecule `Nc1c([N+](=O)[O-])cnn1-c1c(F)c(F)c(C(F)(F)F)c(F)c1F` registered a melting point of 123 to 126 °C.

Take `CCCCCC(=O)Nc1ccc2ccn(Cc3ccc(C#N)cc3OC)c2c1`: the melting point fell in the range of 136 to 138 °C.

As for `Clc1cccc(-c2nc(-c3ccc4c(c3)OCO4)c(-c3ccc4c(c3)OCO4)[nH]2)c1Cl`, the melting point turned out to be 198 °C.

As for `COc1cc2c(Nc3ccc4cn[nH]c4c3)c(C#N)cnc2c(OC)c1OC`, the melting point fell in the range of 243 to 245 °C.

`COc1ccc(N2CC(CSCCCSc3ccnc(CNc4nc(C)nc(C)c4Cl)c3C)OC2=O)cc1` (stereo unspecified) returned a melting point of 161 to 164 °C.

Molecule `N#Cc1ccc(C(=O)Nc2ccc(Cl)c([N+](=O)[O-])c2)cc1` came in with a melting point of 213 °C.

Take `OCC12CO[C@@H](c3ccc(C(F)(F)F)cc3)N1[C@H](c1ccc(C(F)(F)F)cc1)OC2`: the melting point is 120 °C.

Regarding `CC(=O)C=Cc1c(C)c(C)c(C)c2ccoc12`, the melting point stood at 99 °C.

`O=C1NC(Cc2ccc(OCc3ccccc3)cn2)C(=O)NC1Cc1cccnc1` (stereo unspecified) came in with a melting point of 193 to 196 °C.

`Cc1c(NC(=O)c2ccc(OCc3ccccc3)cc2F)ccc2cc(CN3CCCCC3)cnc12` yielded a melting point of 180 to 181 °C.

`CCCC1=C(C(=O)OCC)C(c2cc(F)ccc2F)c2c[nH]nc2N1` (stereo unspecified) displayed a melting point of 168 to 169 °C.

The molecule `CSc1nnc(-c2cc(C(C)(C)C)c(O)c(C(C)(C)C)c2)s1` gave a melting point of 122 °C.

Regarding `O=C1C(=CO)C(c2ccc(Cl)cc2)c2ccc(Cl)cc21` (stereo unspecified), the melting point fell in the range of 122 to 124 °C.

For `O=C1N(Cc2ccc3nonc3c2)c2ccccc2C12COc1cc3c(cc12)CCO3` (stereo unspecified), the melting point lay within 169 to 171 °C.

`CCOC(=O)c1cnc2c(cnn2CC)c1Nc1ccccc1N` registered a melting point of 126 to 128 °C.

Take `Oc1ccc(OCCCCOc2ccc(O)cc2)cc1`: the melting point was 202 to 204 °C.

On to `NC(=O)NCc1ccc(CN(CC(=O)O)C(=O)[C@@H](CCCNC(N)=N[N+](=O)[O-])NC(=O)C(c2ccccc2)c2ccccc2)cc1`, for which the melting point lay in the range of 78 to 81 °C.

In turn, `CCOCc1nc2c(N)nc3ccccc3c2n1CCOCc1ccccc1` displayed a melting point of 144 to 146 °C.

The molecule `CC1Cc2ccccc2C(O)(C2CCN(C)CC2)c2ccsc21` (stereo unspecified) showed a melting point of 177 to 178 °C.

The molecule `CCCCC1OC(=O)c2cc(NC=O)ccc21` (stereo unspecified) came in with a melting point of 127 to 129 °C.

`COc1ccc(C(=O)N[C@H]2CCN(C)C[C@H]2c2ccccc2)cc1OC` (relative stereo) came in with a melting point of 153 to 155 °C.

Turning to `COC(=O)Cc1cc(N)n(-c2ccccn2)n1`, the melting point lay within 84 to 85 °C.

The molecule `CCCCn1c(=O)c2c(ncn2S(=O)(=O)c2ccc(C(C)(C)C)cc2)n(CCCC)c1=O` returned a melting point of 105 to 107 °C.

In turn, `Cc1cccc(C2CCN(C(=O)CCC(=O)c3ccc4c(c3)CCNCC4)CC2)c1` gave a melting point of 91 to 93 °C.

In turn, `Cc1ccc2c(c1)Oc1ncc([N+](=O)[O-])cc1C(=O)N2C` came in with a melting point of 197 to 198 °C.

As to `CC(C)C(=O)NS(=O)(=O)c1cccc(N)c1`, the melting point is 110 to 112 °C.

In turn, `O=C(Nc1ccc2[nH]ccc2c1)C(=O)N1CCC(Cc2ccccc2)CC1` returned a melting point of 68 to 72 °C.

In turn, `Cc1cc(C(O)CN(C)Cc2cc3c(=O)c(C(=O)NCc4ccc(Cl)cc4)cn(C)c3o2)oc1C` (stereo unspecified) registered a melting point of 140 °C.

For the molecule `CC(C)(Cc1nc2c(N)nc3ccccc3c2s1)OC(N)=O`, the melting point lay in the range of 222 to 223 °C.

Consider `NC(=O)N1c2ccccc2C=C(Cl)c2ccccc21`, for which the melting point was in the range of 183 to 185 °C.

`CCOc1ccc2c(c1)C(C)(c1cc(NC(=O)c3cccnc3)ccc1Cl)C(=O)N2S(=O)(=O)c1ccc(C(=O)NC(C)(C)C)cc1OC` (stereo unspecified) yielded a melting point of 192 °C.

Consider `CCSc1nc2ccccc2c(=O)n1NC(=O)Nc1ccc(Cl)cc1`, for which the melting point was in the range of 234 to 235 °C.

In turn, `O=C(NCc1cccc2ccccc12)NC1CCN(S(=O)(=O)c2ccccc2C(F)(F)F)C1` (stereo unspecified) displayed a melting point of 117 to 119 °C.

In turn, `Fc1ccc(Nc2nc(Cl)nc(Cl)n2)cc1C(F)(F)F` showed a melting point of 114 to 117 °C.

Molecule `CC(=O)Nc1cccc(C)c1C(=O)O` returned a melting point of 189 to 190 °C.

`COc1cc(CP(=O)(OC)OC)c2c(CP(=O)(OC)OC)cc(OC)cc2c1` came in with a melting point of 135 to 136 °C.

The molecule `COc1cccc(S(=O)(=O)c2cccc(F)c2C#N)c1` yielded a melting point of 113 to 117 °C.

The molecule `CC=CCn1c(C)c(C)c2cnnc(CCc3ccc(F)cc3F)c21` yielded a melting point of 114 to 118 °C.

Regarding `COc1ccc(C(Sc2ccccc2N)C(O)C(=O)O)cc1` (stereo unspecified), the melting point is 167 to 168 °C.

Regarding `CCCOc1ccccc1N1CCN(CCCCn2c(=O)[nH]c(=O)c3ccccc32)CC1`, the melting point worked out at 68 °C.

The molecule `CCCc1c2c(c([N+](=O)[O-])c3c(=O)cc(C(=O)OCC)oc13)CC(C(=O)OCC)CC2` (stereo unspecified) had a melting point of 164 to 166 °C.

For the molecule `COc1ccc(C(=O)Nc2ccccc2)cc1NS(=O)(=O)c1ccc(F)cc1`, the melting point fell in the range of 209 to 211 °C.

The molecule `O=S1(=O)N=C(O)C(O)=N1` had a melting point of 171 to 172 °C.

On to `O=C(C(Br)c1ccc(Cl)cc1)C1(c2ccc(Cl)c(Cl)c2)CCC1` (stereo unspecified), for which the melting point fell in the range of 109 to 110 °C.

For the molecule `CCOC(=O)c1ccc(-c2ccc(-c3cccc(OC)c3)c(-c3ccc4c(c3)C(C)(C)CCC4(C)C)c2)cc1`, the melting point lay within 116 to 118 °C.

Take `COc1ccc2cc(CCc3ccc(OCC(O)CNC(C)C)cc3)n(C)c(=O)c2c1` (stereo unspecified): the melting point fell in the range of 137 to 139 °C.

For the molecule `N#CC(=O)c1ccc(Cl)c(Cl)c1`, the melting point is 70 to 71 °C.

As for `COc1ccc(CNc2ccc(Cl)cc2C(=O)C(F)(F)F)cc1OC`, the melting point was in the range of 82 to 84 °C.

For `CCc1cc2c(s1)-n1c(Cl)nnc1CN=C2c1ccccc1Cl`, the melting point lay within 133 to 135 °C.

Take `CCc1nc(/C=C/c2cn(-c3ccccc3)nc2OCc2ccc(OCc3nc(-c4cccc(C(=O)NS(C)(=O)=O)c4)oc3C)c(OC)c2)cs1`: the melting point lay within 211 to 213 °C.

For the molecule `O=C1CC(=CCl)c2c(O)cc(O)cc2O1`, the melting point was in the range of 228 to 230 °C.

Take `CCOC(=O)C1=NOC(c2ccc(NC(=O)c3c(I)cccc3C(=O)NC(C)C)c(C)c2)(C(F)(F)F)C1` (stereo unspecified): the melting point lay in the range of 172 to 174 °C.

On to `O=c1oc2c(c(O)c1C(c1ccccc1)C1CC1)CCCCCCC2` (stereo unspecified), for which the melting point fell in the range of 81.7 to 84 °C.

In the case of `Cc1noc(CCNC(c2ccccc2)(c2ccccc2)c2ccccc2)n1`, the melting point lay in the range of 100 to 101 °C.

`COc1cccc(OC)c1-c1ccc(C[C@H](NC(=O)c2c(Cl)cc(-c3nccs3)cc2Cl)C(=O)O)cc1` showed a melting point of 142 °C.

For `COc1ccc(-c2ncccc2OC2SCC(O)C(O)C2O)cc1` (stereo unspecified), the melting point is 137 °C.

For the molecule `Cc1cccc(N2Cc3ccccc3P2(=O)C(C)C)c1` (stereo unspecified), the melting point is 112 to 113 °C.

Consider `Oc1ccc(C2(c3cccc(O)c3)c3ccccc3-c3ccccc32)cc1`, for which the melting point was determined as 221 °C.

The molecule `CN1C(=O)c2cc(Nc3ccccc3)c(Nc3ccccc3)cc2C1=O` gave a melting point of 195 to 196 °C.
